Test results published in patent US6593365B1, “Diflunisal esters and related compounds” (The University of Queensland, priority 1997, dated 2003).
Where two headings read alike, the source gives them in different places. Marks after values point to notes of the source that are not given here.

What was measured:
[1] = In vitro non-enzymatic hydrolysis in Krebs-Henseleit buffer; type: physicochemical; conditions: for Hydrolysis rate constant (k): pH 7.4, 25° C., n=5; for half-life: pH 7.4, read-out: Half life (t1/2) (converted)
How it was run: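 Derivatives dissolved in Krebs-Henseleit buffer, pH 7.4, 25±1° C, with no protein or 2% w/v BSA; solutions sonicated and centrifuged, supernatant sampled over time. First-order hydrolysis rate constant k derived from ester concentration vs time, and half-life calculated from k.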

[2] = test system: human platelet rich plasma; assay: Platelet aggregation induced by arachidonic acid; type: cell-based; conditions: compound 600 µM, 37° C., arachidonic acid 200 µM
How it was run: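 Citrated human PRP ([…]) preincubated with compound 3–45 min at 37 °C under stirring, then challenged with 200 µM arachidonic acid (final). Aggregation quantified as area under the turbidimetric curve; non-responding samples given 20 µM ADP to verify platelet viability.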

[3] = test system: OH. generated from Fenton's reaction; assay: Luminol-dependent chemiluminescence induced by Fenton's reagent; type: biochemical; set-up: unit of the concentration uncertain; conditions: F: CL induced by Fenton's reagent, n=3
Protocol: CL was measured with a luminometer (Model 1250; LKB Wallac, Finland) and recorded in millivolts (Cheung et al., 1984, supra).
Fenton's reagent (FeSO4 and H2O2) was used as a standard reaction mixture for the generation of OH. (Lai and Piette, 1979, Tetrahedron Lett. 775-778):
Fe^+++H2O2→Fe^++++OH.+OH (1)
The initial reaction mixture consisted of 20 μL of 3.8 mM FeSO4.7H2O, 20 μL of 5 mg/mL luminol (Sigma), and 2 mL of 1 mM phosphate buffer in a 3 mL polystyrene cuvette. Twenty microlitres of 320 mM H2O2 was added to initiate the Fenton's reaction.
A known concentration of the ethanolic (≲1%) aspirin analogue or diflunisal ester's stock solution was added to the 1 mM phosphate buffer to prepare solutions with a final concentration of 50 μM, 250 μM or 500 μM. Twenty microlitres of these test samples was added onto the cuvette which contained the initial reaction mixture. H2O2 was added to induce CL reaction. The luminol-dependent CL response was recorded in mV by a potentiometric recorder.
(§1) CL measurements were always done in triplicate and Student's t-test used to assess the statistical significance of the difference between measurements.

[4] = test system: superoxide generated from xanthine oxidase plus xanthine reaction; assay: Xanthine oxidase plus xanthine-induced chemiluminescence; type: biochemical; set-up: dose or concentration left out as unconfirmed; conditions: X: CL induced by xanthine oxidase plus xanthine
Protocol: To clarify the role of aspirin analogues and diflunisal esters in free radicals scavenging, the Fenton's reagent was replaced by an artificial superoxide generating system in the CL inhibition studies. This cell-free system consisted of 100 μg/mL of xanthine oxidase (Sigma) plus 0.5 μM xanthine (Sigma) (Rosen and Klebanoff, 1976, J Clin Invest 58 50-60; Cheson et al., 1976, J Clin Invest 58 789-796).
as §1

[5] = test system: ischaemic/reperfusion rat livers; assay: Ischaemic/reperfusion injury in rat livers (LDH release, bile production); set-up: species or system Female Sprague-Dawley rats; conditions: for EC50: Rattus norvegicus
Protocol: Female Sprague-Dawley rats (220-250 g) were anaesthetised by interperitoneal injection of pentobarbital sodium (60 mg/kg, Boehringer Ingelhein). […] The bile duct was cannulated with a polyethylene tubing (PE-10, I.D. 0.28 mm; Clay Adams, New Jersey) and bile was collected into pre-weighed microcentrifuge tubes at 70 min intervals (in the middle of experiment and the end of experiment). The portal vein was then cannulated using a 16 G intravenous catheter and the liver was perfused via this cannula with 2% BSA Krebs-Henseleit bicarbonate buffer (pH 7.4) and oxygenated using a membrane oxygenator comprising of silastic tubing and ventilated with carbogen (95% O2/5% CO2). The perfusion system used was recirculating and employed a peristaltic pump (Cole-Parmer, Illinois).
Following a 10 min pre-ischaemia perfusion, the perfusion flow was stopped for 30 min at 37° C. with the liver being kept moist. At the end of this ischaemic phase, a known concentration of the aspirin analogue or diflunisal ester's solution (in 2% BSA Krebs-Henseleit buffer) was added into the perfusate prior to the perfusion being resumed for another 100 min. Outflow fractions were collected up to 140 min. A biochemistry autoanalyzer (Hitachi, model 747; Tokyo, Japan) was employed to determine the level of enzyme (LDH) release.
The degree of ischaemic/reperfusion injury was measured by calculating the area under the LDH release ([…]) versus time curve (AUC). […] The efficacy of each compound is expressed in terms of ED50 which represents the molar dose for 50% reduction of LDH release compared to the control. The comparison of bile production between the first stage of experiment (the first 70 min) and the second stage of experiment (the last 70 min) is also used as index of liver function during an experiment.

[6] = Krebs-Henseleit buffer 0% BSA, U = Undetectable
[7] = 0.5 (unit uncertain) compound, U = undetectable
[8] = bovine, Krebs-Henseleit buffer with 2% w/v BSA
[9] = protein-free Krebs-Henseleit buffer, Krebs-Henseleit buffer 0% BSA, first half life, t1/2=0.693/k, U = Undetectable
[10] = C is the ED50 molar dose, read-out: log 1/C (converted)
[11] = molar dose for 50% reduction of LDH release compared to control, 30 min ischaemia, 100 min reperfusion, read-out: ED50 (the source's name)

Row | Hydrolysis rate constant (k) [1, 6] [hour^1] | Hydrolysis rate constant (k) ([1]; Krebs-Henseleit buffer 2% BSA) [hour^1] | CL inhibition (%) [4] [%] | half-life [1, 8] [h] | half-life [1, 9] [h] | Compound | Platelet Aggregation (% of control) ([2]; preincubation 3 minutes) | Platelet Aggregation (% of control) ([2]; preincubation 5 minutes) | Platelet Aggregation (% of control) ([2]; preincubation 8 minutes) | Platelet Aggregation (% of control) ([2]; preincubation 10 minutes) | Platelet Aggregation (% of control) ([2]; preincubation 12 minutes) | Platelet Aggregation (% of control) ([2]; preincubation 15 minutes) | Platelet Aggregation (% of control) ([2]; preincubation 20 minutes) | Platelet Aggregation (% of control) ([2]; preincubation 25 minutes) | Platelet Aggregation (% of control) ([2]; preincubation 45 minutes) | CL inhibition (%) [3, 7] | CL inhibition (%) ([3]; 2.5 (unit uncertain) compound) | CL inhibition (%) ([3]; 5 (unit uncertain) compound) | log 1/C ([5]; C is the ED50 molar dose) | EC50 [5, 10] [µM] | EC50 [5, 11] [µM]
1 | 0.0378 ± 0.0105 | 0.0238 ± 0.0095 | 0.5 ± 0.0 | – | – | CC(=O)Oc1ccc(-c2ccc(F)cc2F)cc1C(=O)O [Compound C2D, acetyldiflunisal] | 92.3 ± 0.5 % of control | 67.3 ± 0.9 % of control | 27.9 ± 1.1 % of control | 0 % of control | 0 % of control | 0 % of control | 0 % of control | 0 % of control | 0 % of control | 21.3 ± 5.0% | 49.8 ± 3.9 | 91.2 ± 0.6 | 4.61 | – | –
2 | – | 0.0138 ± 0.0058 | 0.6 ± 0.1 | – | – | CCCC(=O)Oc1ccc(-c2ccc(F)cc2F)cc1C(=O)O [Compound C4D, n-butanoyldiflunisal] | 96.1 ± 0.3 % of control | 90.3 ± 2.1 % of control | 73.9 ± 0.7 % of control | 57.3 ± 0.1 % of control | 31.8 ± 0.4 % of control | 0 % of control | 0 % of control | 0 % of control | 0 % of control | 16.9 ± 4.9% | 65.1 ± 2.1 | 93.7 ± 0.5 | 4.67 | – | –
3 | 0.0049 ± 0.0037 | 0.0031 ± 0.0015 | 0.3 ± 0.1 | 224 | 141 | CCCC(=O)Oc1ccccc1C(=O)O [Compound C4SA, n-butanoylsalicylic acid] | 29.5 ± 1.5^d % of control | 0 % of control | 0 % of control | 0 % of control | 0 % of control | 0 % of control | 0 % of control | 0 % of control | 0 % of control | – | 41.3 ± 7.5 | 84.2 ± 1.4 | – | 49 | 48.8
4 | – | 0.0113 ± 0.0037 | 0.8 ± 0.0 | – | – | CCCCC(=O)Oc1ccc(-c2ccc(F)cc2F)cc1C(=O)O [Compound C5D, n-pentanoyldiflunisal] | 97.1 ± 0.1 % of control | 95.3 ± 0.7 % of control | 90.6 ± 0.9 % of control | 87.3 ± 3.1 % of control | 75.9 ± 0.1 % of control | 57.5 ± 1.7 % of control | 0 % of control | 0 % of control | 0 % of control | 22.2 ± 7.1% | 58.2 ± 2.5 | 88.8 ± 0.9 | 4.77 | – | –
5 | 0.0061 ± 0.0027 | 0.0028 ± 0.0013 | 0.3 ± 0.0 | 248 | 114 | CCCCC(=O)Oc1ccccc1C(=O)O [Compound C5SA, n-pentanoylsalicylic acid] | 63.5 ± 1.5 % of control | 41.3 ± 1.1 % of control | 0 % of control | 0 % of control | 0 % of control | 0 % of control | 0 % of control | 0 % of control | 0 % of control | 0.4 ± 0.1^e % | 45.9 ± 5.0 | 95.6 ± 0.4 | – | 34.7 | 34.6
6 | – | 0.0056 ± 0.0042 | 0.7 ± 0.1 | – | – | CCCCCC(=O)Oc1ccc(-c2ccc(F)cc2F)cc1C(=O)O [Compound C6D, n-hexanoyldiflunisal] | 97.2 ± 0.2 % of control | 94.7 ± 0.3 % of control | 93.3 ± 0.2 % of control | 90.1 ± 2.1 % of control | 89.3 ± 0.1 % of control | 71.7 ± 1.9 % of control | 45.6 ± 0.5 % of control | 0 % of control | 0 % of control | 20.5 ± 4.6% | 54.8 ± 2.4 | 92.7 ± 3.1 | 4.68 | – | –

Row | Compound | Hydrolysis rate constant (k) [1, 6] [hour^1] | Hydrolysis rate constant (k) ([1]; Krebs-Henseleit buffer 2% BSA) [hour^1] | CL inhibition (%) [4] [%] | half-life [1, 8] [h] | half-life [1, 9] [h] | Platelet Aggregation (% of control) ([2]; preincubation 3 minutes) | Platelet Aggregation (% of control) ([2]; preincubation 5 minutes) | Platelet Aggregation (% of control) ([2]; preincubation 8 minutes) | Platelet Aggregation (% of control) ([2]; preincubation 10 minutes) | Platelet Aggregation (% of control) ([2]; preincubation 12 minutes) | Platelet Aggregation (% of control) ([2]; preincubation 15 minutes) | Platelet Aggregation (% of control) ([2]; preincubation 20 minutes) | Platelet Aggregation (% of control) ([2]; preincubation 25 minutes) | Platelet Aggregation (% of control) ([2]; preincubation 45 minutes) | CL inhibition (%) [3, 7] | CL inhibition (%) ([3]; 2.5 (unit uncertain) compound) | CL inhibition (%) ([3]; 5 (unit uncertain) compound) | log 1/C ([5]; C is the ED50 molar dose) | EC50 [5, 10] [µM] | EC50 [5, 11] [µM]
7 | O=C(O)c1cc(-c2ccc(F)cc2F)ccc1O [DF, 2′,4′-difluoro-4-hydroxy-3-biphenylcarboxylic acid, reference compound] | – | – | 0.4 ± 0.1 | – | – | – | – | – | – | – | – | – | – | – | 19.2 ± 6.9% | 50.6 ± 2.8 | 92.1 ± 0.6 | – | 25.1 | 25.2
8 | O-acetylsalicylic acid [Compound C2SA, reference compound] | – | – | 0.4 ± 0.1 | – | – | 0 % of control | 0 % of control | 0 % of control | 0 % of control | 0 % of control | 0 % of control | 0 % of control | 0 % of control | 0 % of control | – | 43.3 ± 5.0 | 97.6 ± 0.5 | – | – | –
